These results are taken from US20260007681A1, “INDOLE DERIVATIVES AS ESTROGEN RECEPTOR DEGRADERS” (REGENTS OF THE UNIVERSITY OF MICHIGAN, priority 2022, published 2026).

For the assay, the target named is ER (Homo sapiens (Human), UniProt P03372). Put plainly: Western blot analysis (Compounds B1-B278). The following applies: ER degradation by traditional Western blot; DC50 classes. In kind it is cell-based. In a few lines: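 Compound-treated cells were lysed in RIPA buffer (Tris.HCl pH 7.6, 1% NP-40, deoxycholate, 0.1% SDS) with protease inhibitors; equal protein was resolved on 10% SDS-PAGE, transferred to PVDF and immunoblotted. Band intensities were quantified and normalized to GAPDH.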
Sequence of ER (P03372 whole entry): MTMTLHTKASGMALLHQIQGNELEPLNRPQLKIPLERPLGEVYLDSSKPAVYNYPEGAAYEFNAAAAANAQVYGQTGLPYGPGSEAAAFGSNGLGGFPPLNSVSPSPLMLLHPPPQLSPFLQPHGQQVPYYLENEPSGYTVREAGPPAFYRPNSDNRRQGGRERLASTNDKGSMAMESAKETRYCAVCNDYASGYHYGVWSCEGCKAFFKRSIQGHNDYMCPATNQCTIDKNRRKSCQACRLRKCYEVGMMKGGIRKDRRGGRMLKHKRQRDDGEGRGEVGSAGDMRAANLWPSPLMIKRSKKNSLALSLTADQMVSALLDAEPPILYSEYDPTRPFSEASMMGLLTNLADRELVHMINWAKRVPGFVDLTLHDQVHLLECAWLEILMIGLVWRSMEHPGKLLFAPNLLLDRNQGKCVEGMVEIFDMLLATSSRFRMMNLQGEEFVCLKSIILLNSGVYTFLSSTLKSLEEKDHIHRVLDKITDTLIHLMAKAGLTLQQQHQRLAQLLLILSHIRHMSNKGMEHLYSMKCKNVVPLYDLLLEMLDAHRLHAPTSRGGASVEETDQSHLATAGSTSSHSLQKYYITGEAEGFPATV
For the compound `C[C@@H]1Cc2c([nH]c3ccccc23)[C@@H](c2c(F)cc(N3CCC4(CC3)CC(C(=O)N3CCC(CN5Cc6cc7c(cc6C5)C(=O)N(C5CCC(=O)NC5=O)C7=O)CC3)C4)cc2F)N1CC(F)F` (stereo partly drawn) [Compound B39, 6-((1-(7-(4-((1R,3R)-2-(2,2-difluoroethyl)-3-methyl-2,3,4,9-tetrahydro-1H-pyrido[3,4-b]indol-1-yl)-3,5-difluorophenyl)-7-azaspiro[3.5]nonane-2-carbonyl)piperidin-4-yl)methyl)-2-(2,6-dioxopiperidin-3-yl)-6,7-dihydropyrrolo[3,4-f]isoindole-1,3(2H,5H)-dione], the “Traditional Western Degradation Potency” value is given as “B (“B”: 10-100 nM)”.

On to `C[C@@H]1Cc2c([nH]c3ccccc23)[C@@H](c2c(F)cc(N3CCC4(CC3)CC(C(=O)N3CCC(N5Cc6cc7c(cc6C5)C(=O)N(C5CCC(=O)NC5=O)C7=O)CC3)C4)cc2F)N1CC(F)F` (stereo partly drawn) [Compound B40, 6-(1-(7-(4-((1R,3R)-2-(2,2-difluoroethyl)-3-methyl-2,3,4,9-tetrahydro-1H-pyrido[3,4-b]indol-1-yl)-3,5-difluorophenyl)-7-azaspiro[3.5]nonane-2-carbonyl)piperidin-4-yl)-2-(2,6-dioxopiperidin-3-yl)-6,7-dihydropyrrolo[3,4-f]isoindole-1,3(2H,5H)-dione], for which the “Traditional Western Degradation Potency” value is reported as “A (“A”: <10 nM)”.

`C[C@@H]1Cc2c([nH]c3ccccc23)[C@@H](c2c(F)cc(N3CCC4(CC3)CC(C(=O)N3CCC(N5Cc6cc7c(cc6C5)C(=O)N(C5CCC(=O)NC5=O)C7)CC3)C4)cc2F)N1CC(F)F` (stereo partly drawn) [Compound B41, 3-(6-(1-(7-(4-((1R,3R)-2-(2,2-difluoroethyl)-3-methyl-2,3,4,9-tetrahydro-1H-pyrido[3,4-b]indol-1-yl)-3,5-difluorophenyl)-7-azaspiro[3.5]nonane-2-carbonyl)piperidin-4-yl)-1-oxo-3,5,6,7-tetrahydropyrrolo[3,4-f]isoindol-2(1H)-yl)piperidine-2,6-dione]: the “Traditional Western Degradation Potency” value is “A (“A”: <10 nM)”.

Turning to `C[C@@H]1Cc2c([nH]c3ccccc23)[C@@H](c2c(F)cc(N3CC(CC(=O)N4Cc5cc6c(cc5C4)C(=O)N(C4CCC(=O)NC4=O)C6)C3)cc2F)N1CC(F)F` (stereo partly drawn) [Compound B42, 3-(6-(2-(1-(4-((1R,3R)-2-(2,2-difluoroethyl)-3-methyl-2,3,4,9-tetrahydro-1H-pyrido[3,4-b]indol-1-yl)-3,5-difluorophenyl)azetidin-3-yl)acetyl)-1-oxo-3,5,6,7-tetrahydropyrrolo[3,4-f]isoindol-2(1H)-yl)piperidine-2,6-dione], the “Traditional Western Degradation Potency” value is listed as “C (“C”: >100 nM)”.

On to `C[C@@H]1Cc2c([nH]c3ccccc23)[C@@H](c2c(F)cc(N3CC(CC(=O)N4CC(N5Cc6cc7c(cc6C5)C(=O)N(C5CCC(=O)NC5=O)C7)C4)C3)cc2F)N1CC(F)F` (stereo partly drawn) [Compound B43, 3-(6-(1-(2-(1-(4-((1R,3R)-2-(2,2-difluoroethyl)-3-methyl-2,3,4,9-tetrahydro-1H-pyrido[3,4-b]indol-1-yl)-3,5-difluorophenyl)azetidin-3-yl)acetyl)azetidin-3-yl)-1-oxo-3,5,6,7-tetrahydropyrrolo[3,4-f]isoindol-2(1H)-yl)piperidine-2,6-dione], for which the “Traditional Western Degradation Potency” value is “B (“B”: 10-100 nM)”.

On to `C[C@@H]1Cc2c([nH]c3ccccc23)[C@@H](c2c(F)cc(N3CCC(CC(=O)N4Cc5cc6c(cc5C4)C(=O)N(C4CCC(=O)NC4=O)C6)CC3)cc2F)N1CC(F)F` (stereo partly drawn) [Compound B44, 3-(6-(2-(1-(4-((1R,3R)-2-(2,2-difluoroethyl)-3-methyl-2,3,4,9-tetrahydro-1H-pyrido[3,4-b]indol-1-yl)-3,5-difluorophenyl)piperidin-4-yl)acetyl)-1-oxo-3,5,6,7-tetrahydropyrrolo[3,4-f]isoindol-2(1H)-yl)piperidine-2,6-dione], for which the “Traditional Western Degradation Potency” value is reported as “C (“C”: >100 nM)”.

As for `C[C@@H]1Cc2c([nH]c3ccccc23)[C@@H](c2c(F)cc(N3CC4(CCCN(CC(=O)N5Cc6cc7c(cc6C5)C(=O)N(C5CCC(=O)NC5=O)C7=O)C4)C3)cc2F)N1CC(F)F` (stereo partly drawn) [Compound B45, 6-(2-(2-(4-((1R,3R)-2-(2,2-difluoroethyl)-3-methyl-2,3,4,9-tetrahydro-1H-pyrido[3,4-b]indol-1-yl)-3,5-difluorophenyl)-2,6-diazaspiro[3.5]nonan-6-yl)acetyl)-2-(2,6-dioxopiperidin-3-yl)-6,7-dihydropyrrolo[3,4-f]isoindole-1,3(2H,5H)-dione], the “Traditional Western Degradation Potency” value was “C (“C”: >100 nM)”.

Consider `C[C@@H]1Cc2c([nH]c3ccccc23)[C@@H](c2c(F)cc(N3CC4(CCCN(CC(=O)N5Cc6cc7c(cc6C5)C(=O)N(C5CCC(=O)NC5=O)C7)C4)C3)cc2F)N1CC(F)F` (stereo partly drawn) [Compound B46, 3-(6-(2-(2-(4-((1R,3R)-2-(2,2-difluoroethyl)-3-methyl-2,3,4,9-tetrahydro-1H-pyrido[3,4-b]indol-1-yl)-3,5-difluorophenyl)-2,6-diazaspiro[3.5]nonan-6-yl)acetyl)-1-oxo-3,5,6,7-tetrahydropyrrolo[3,4-f]isoindol-2(1H)-yl)piperidine-2,6-dione], for which the “Traditional Western Degradation Potency” value was “B (“B”: 10-100 nM)”.

Regarding `C[C@@H]1Cc2c([nH]c3ccccc23)[C@@H](c2c(F)cc(N3CCC4(CCN(CC(=O)N5Cc6cc7c(cc6C5)C(=O)N(C5CCC(=O)NC5=O)C7=O)CC4)C3)cc2F)N1CC(F)F` (stereo partly drawn) [Compound B47, 6-(2-(2-(4-((1R,3R)-2-(2,2-difluoroethyl)-3-methyl-2,3,4,9-tetrahydro-1H-pyrido[3,4-b]indol-1-yl)-3,5-difluorophenyl)-2,8-diazaspiro[4.5]decan-8-yl)acetyl)-2-(2,6-dioxopiperidin-3-yl)-6,7-dihydropyrrolo[3,4-f]isoindole-1,3(2H,5H)-dione], the “Traditional Western Degradation Potency” value was “A (“A”: <10 nM)”.

Regarding `C[C@@H]1Cc2c([nH]c3ccccc23)[C@@H](c2c(F)cc(N3CCC4(CCN(CC(=O)N5Cc6cc7c(cc6C5)C(=O)N(C5CCC(=O)NC5=O)C7)CC4)C3)cc2F)N1CC(F)F` (stereo partly drawn) [Compound B48, 3-(6-(2-(2-(4-((1R,3R)-2-(2,2-difluoroethyl)-3-methyl-2,3,4,9-tetrahydro-1H-pyrido[3,4-b]indol-1-yl)-3,5-difluorophenyl)-2,8-diazaspiro[4.5]decan-8-yl)acetyl)-1-oxo-3,5,6,7-tetrahydropyrrolo[3,4-f]isoindol-2(1H)-yl)piperidine-2,6-dione], the “Traditional Western Degradation Potency” value is given as “A (“A”: <10 nM)”.

As for `C[C@@H]1Cc2c([nH]c3ccccc23)[C@@H](c2c(F)cc(N3CCC(N4CCC(C(=O)N5Cc6cc7c(cc6C5)C(=O)N(C5CCC(=O)NC5=O)C7=O)CC4)C3)cc2F)N1CC(F)F` (stereo partly drawn) [Compound B50, 6-(1-(1-(4-((1R,3R)-2-(2,2-difluoroethyl)-3-methyl-2,3,4,9-tetrahydro-1H-pyrido[3,4-b]indol-1-yl)-3,5-difluorophenyl)pyrrolidin-3-yl)piperidine-4-carbonyl)-2-(2,6-dioxopiperidin-3-yl)-6,7-dihydropyrrolo[3,4-f]isoindole-1,3(2H,5H)-dione], the “Traditional Western Degradation Potency” value is recorded as “C (“C”: >100 nM)”.

With `C[C@@H]1Cc2c([nH]c3ccccc23)[C@@H](c2c(F)cc(N3CCC4(CC3)CN(C(=O)CN3Cc5cc6c(cc5C3)C(=O)N(C3CCC(=O)NC3=O)C6=O)C4)cc2F)N1CC(F)F` (stereo partly drawn) [Compound B51, 6-(2-(7-(4-((1R,3R)-2-(2,2-difluoroethyl)-3-methyl-2,3,4,9-tetrahydro-1H-pyrido[3,4-b]indol-1-yl)-3,5-difluorophenyl)-2,7-diazaspiro[3.5]nonan-2-yl)-2-oxoethyl)-2-(2,6-dioxopiperidin-3-yl)-6,7-dihydropyrrolo[3,4-f]isoindole-1,3(2H,5H)-dione], the “Traditional Western Degradation Potency” value is “A (“A”: <10 nM)”.

`C[C@@H]1Cc2c([nH]c3ccccc23)[C@@H](c2c(F)cc(N3CCC4(CCN(C(=O)CN5Cc6cc7c(cc6C5)C(=O)N(C5CCC(=O)NC5=O)C7=O)CC4)CC3)cc2F)N1CC(F)F` (stereo partly drawn) [Compound B52, 6-(2-(9-(4-((1R,3R)-2-(2,2-difluoroethyl)-3-methyl-2,3,4,9-tetrahydro-1H-pyrido[3,4-b]indol-1-yl)-3,5-difluorophenyl)-3,9-diazaspiro[5.5]undecan-3-yl)-2-oxoethyl)-2-(2,6-dioxopiperidin-3-yl)-6,7-dihydropyrrolo[3,4-f]isoindole-1,3(2H,5H)-dione]: the “Traditional Western Degradation Potency” value is recorded as “A (“A”: <10 nM)”.

For the compound `C[C@@H]1Cc2c([nH]c3ccccc23)[C@@H](c2c(F)cc(N3CCC(C(=O)N4CCC(CN5Cc6cc7c(cc6C5)C(=O)N(C5CCC(=O)NC5=O)C7=O)CC4)CC3)cc2F)N1CC(F)F` (stereo partly drawn) [Compound B53, 6-((1-(1-(4-((1R,3R)-2-(2,2-difluoroethyl)-3-methyl-2,3,4,9-tetrahydro-1H-pyrido[3,4-b]indol-1-yl)-3,5-difluorophenyl)piperidine-4-carbonyl)piperidin-4-yl)methyl)-2-(2,6-dioxopiperidin-3-yl)-6,7-dihydropyrrolo[3,4-f]isoindole-1,3(2H,5H)-dione], the “Traditional Western Degradation Potency” value was “B (“B”: 10-100 nM)”.

As to `C[C@@H]1Cc2c([nH]c3ccccc23)[C@@H](c2c(F)cc(N3CCC(C(=O)N4CCC(N5Cc6cc7c(cc6C5)C(=O)N(C5CCC(=O)NC5=O)C7=O)CC4)CC3)cc2F)N1CC(F)F` (stereo partly drawn) [Compound B54, 6-(1-(1-(4-((1R,3R)-2-(2,2-difluoroethyl)-3-methyl-2,3,4,9-tetrahydro-1H-pyrido[3,4-b]indol-1-yl)-3,5-difluorophenyl)piperidine-4-carbonyl)piperidin-4-yl)-2-(2,6-dioxopiperidin-3-yl)-6,7-dihydropyrrolo[3,4-f]isoindole-1,3(2H,5H)-dione], the “Traditional Western Degradation Potency” value is on record as “A (“A”: <10 nM)”.
